Laboratory results: patent US9200005B2, “Inhibitor compounds of phosphodiesterase type 10A” (AbbVie Deutschland GmbH & Co. KG, priority 2013, dated 2015)
Counter-ions that a name gives are not always drawn.

Experiments:
[1] = Determination of the microsomal half-life / microsomal clearance, human liver microsomes; assay type: in vitro ADME; settings: 0.5 μM test substance, 0.25 mg of microsomal protein/mL, NADPH, 37° C.
Method: (§1) b) Determination of the Microsomal Half-Life:
(§2) The metabolic stability of the compounds of the invention was determined in the following assay.
(§3) The test substances were incubated in a concentration of 0.5 μM as follows:
(§4) 0.5 μM test substance are preincubated together with liver microsomes from different species (from rat, human or other species) (0.25 mg of microsomal protein/mL) in 0.05 M potassium phosphate buffer of pH 7.4 in microtiter plates at 37° C. for 5 min. The reaction is started by adding NADPH (1 mg/mL). After 0, 5, 10, 15, 20 and 30 min, 50 μl aliquots are removed, and the reaction is immediately stopped and cooled with the same volume of acetonitrile. The samples are frozen until analyzed. The remaining concentration of undegraded test substance is determined by MSMS. The half-life (T½) is determined from the gradient of the signal of test substance/unit time plot, it being possible to calculate the half-life of the test substance, assuming first order kinetics, from the decrease in the concentration of the compound with time. The microsomal clearance (mCl) is calculated from mCl=ln 2/T½/(content of microsomal protein in mg/mL)×1000 [mL/min/mg] (modified from references: Di, The Society for Biomoleculur Screening, 2003, 453-462; Obach, DMD, 1999 vol 27. N 11, 1350-1359).

[2] = Determination of the microsomal half-life / microsomal clearance, rat liver microsomes; assay type: in vitro ADME; settings: 0.5 μM test substance, 0.25 mg of microsomal protein/mL, NADPH, 37° C.
Method: as §1, §2, §3, §4

Row | Compound | Human mCl [1] | Rat mCl [2] | Rat mCl ([2]; bis(trifluoroacetate))
1 | 3-(4-fluorophenyl)-5-methyl-7-(pyridin-4-yl)thieno[2,3-d]pyridazin-4(5H)-one [Example 48] | ++ (++: <100 μl min^−1 mg^−1) | ++ (++: <100 μl min^−1 mg^−1) | –
2 | Cn1nc(-c2ccncc2)c2scc(N3CCC(O)CC3)c2c1=O [Example 4, 3-(4-hydroxypiperidin-1-yl)-5-methyl-7-(pyridin-4-yl)thieno[2,3-d]pyridazin-4(5H)-one] | ++ (++: <100 μl min^−1 mg^−1) | ++ (++: <100 μl min^−1 mg^−1) | –
3 | Cn1nc(-c2ccncc2)c2scc(N3CCN(C(=O)OC(C)(C)C)CC3)c2c1=O [Example 5, tert-butyl 4-[5-methyl-4-oxo-7-(pyridin-4-yl)-4,5-dihydrothieno[2,3-d]pyridazin-3-yl]piperazine-1-carboxylate] | ++ (++: <100 μl min^−1 mg^−1) | ++ (++: <100 μl min^−1 mg^−1) | –
4 | Cn1nc(-c2ccncc2)c2scc(-c3ccnnc3)c2c1=O [Example 7, 5-methyl-3-(pyridazin-4-yl)-7-(pyridin-4-yl)thieno[2,3-d]pyridazin-4(5H)-one] | ++ (++: <100 μl min^−1 mg^−1) | + (+: 100-220 μl min^−1 mg^−1) | –
5 | Cn1nc(-c2ccncc2)c2scc(-c3ccc(F)cc3)c2c1=O [Example 8, 3-(4-fluorophenyl)-5-methyl-7-(pyridin-4-yl)thieno[2,3-d]pyridazin-4(5H)-one] | + (+: 100-220 μl min^−1 mg^−1) | + (+: 100-220 μl min^−1 mg^−1) | –
6 | COc1ncc(-c2csc3c(-c4ccncc4)nn(C)c(=O)c23)cn1 [Example 10, 3-(2-methoxypyrimidin-5-yl)-5-methyl-7-(pyridin-4-yl)thieno[2,3-d]pyridazin-4(5H)-one] | ++ (++: <100 μl min^−1 mg^−1) | ++ (++: <100 μl min^−1 mg^−1) | –
7 | Cn1nc(-c2ccncc2)c2scc(N3CCNCC3)c2c1=O [Example 12, 5-methyl-3-(piperazin-1-yl)-7-(pyridin-4-yl)thieno[2,3-d]pyridazin-4(5H)-one (dihydrochloride salt)] | ++ (++: <100 μl min^−1 mg^−1) | ++ (++: <100 μl min^−1 mg^−1) | –
8 | Cn1nc(-c2ccncc2)c2scc(CN3CCOCC3)c2c1=O [Example 13, 5-methyl-3-(morpholin-4-ylmethyl)-7-(pyridin-4-yl)thieno[2,3-d]pyridazin-4(5H)-one] | + (+: 100-220 μl min^−1 mg^−1) | + (+: 100-220 μl min^−1 mg^−1) | –
9 | Cn1nc(-c2ccncc2)c2scc(-c3cccnc3)c2c1=O.O=C(O)C(F)(F)F [Example 15, 5-methyl-3-(pyridin-3-yl)-7-(pyridin-4-yl)thieno[2,3-d]pyridazin-4(5H)-one bis(trifluoroacetate)] | ++ (++: <100 μl min^−1 mg^−1) | – | ∘ (∘ not avialable or >220 μl min^−1 mg^−1)
10 | Cn1nc(-c2ccncc2)c2scc(-c3cc4ccccc4s3)c2c1=O.O=C(O)C(F)(F)F [Example 23, 3-(1-benzothiophen-2-yl)-5-methyl-7-(pyridin-4-yl)thieno[2,3-d]pyridazin-4(5H)-one trifluoroacetate] | + (+: 100-220 μl min^−1 mg^−1) | + (+: 100-220 μl min^−1 mg^−1) | –
11 | Cn1nc(-c2ccncc2)c2scc(-c3cccc(-n4cccn4)c3)c2c1=O.O=C(O)C(F)(F)F.O=C(O)C(F)(F)F [Example 24, 5-methyl-3-[3-(1H-pyrazol-1-yl)phenyl]-7-(pyridin-4-yl)thieno[2,3-d]pyridazin-4(5H)-one bis(trifluoroacetate)] | ∘ (∘ not avialable or >220 μl min^−1 mg^−1) | + (+: 100-220 μl min^−1 mg^−1) | –
12 | Cn1nc(-c2ccncc2)c2scc(-c3ccc(C#N)cc3)c2c1=O.O=C(O)C(F)(F)F [Example 25, 4-[5-methyl-4-oxo-7-(pyridin-4-yl)-4,5-dihydrothieno[2,3-d]pyridazin-3-yl]benzonitrile trifluoroacetate] | ++ (++: <100 μl min^−1 mg^−1) | ++ (++: <100 μl min^−1 mg^−1) | –
